Data as given in US8802597B2, “Herbicidal pyrimidines” (E I du Pont de Nemours and Company, priority 2003, dated 2014).

Tests used:
Experiment in all cases: Test E flooded paddy water application
Format in all cases: in vivo
[1] = tested on: smallflower umbrella sedge (Cyperus difformis); conditions: Flood, 21 days, scale 0 to 100 (0 no effect, 100 complete control); for Plant response rating, Sedge, Umbrella: 16 g ai/ha
Outline: (§1)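 Greenhouse pots of Tama silt loam with weeds and rice at 2.0–2.5-leaf stage, flooded to 3 cm; compounds applied directly into paddy water, depth maintained. Visual rating versus untreated controls after 21 days, 0 (no effect) to 100 (complete control); 29.5/26.7 °C, 16-h photoperiod.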

[2] = tested on: transplanted rice seedlings (Oryza sativa cv. ‘Japonica-M202’); conditions: Flood, 21 days, scale 0 to 100 (0 no effect, 100 complete control); for Plant response rating, Rice, Transplanted: 16 g ai/ha
Outline: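 Response scored visually on a 0–100 scale (100 = complete control) at 21 days against untreated pots. Treatment was into paddy water 3 cm deep over silt loam, with plants at the 2.0–2.5-leaf stage, grown under 16-h light at 29.5/26.7 °C day/night.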

[3] = tested on: late watergrass (Echinochloa oryzicola); conditions: Flood, 21 days, scale 0 to 100 (0 no effect, 100 complete control); for Plant response rating, Watergrass, Late: 16 g ai/ha
Outline: as §1

[4] = tested on: water seeded rice seedlings (Oryza sativa cv. ‘Japonica-M202’); conditions: Flood, 21 days, scale 0 to 100 (0 no effect, 100 complete control); for Plant response rating, Rice, Water Seeded: 16 g ai/ha
Outline: as §1

[5] = tested on: junglerice (Echinochloa colona); conditions: Flood, 21 days, scale 0 to 100 (0 no effect, 100 complete control); for Plant response rating, Junglerice: 16 g ai/ha
Outline: as §1

[6] = tested on: rice flatsedge (Cyperus iria); conditions: Flood, 21 days, scale 0 to 100 (0 no effect, 100 complete control)
Outline: as §1

[7] = tested on: ducksalad (Heteranthera limosa); conditions: Flood, 21 days, scale 0 to 100 (0 no effect, 100 complete control); for Plant response rating, Ducksalad: 16 g ai/ha
Outline: as §1

[8] = tested on: purple redstem (Ammannia coccinea); conditions: Flood, 21 days, scale 0 to 100 (0 no effect, 100 complete control); for Plant response rating, Redstem: 16 g ai/ha
Outline: as §1

[9] = tested on: bearded (brdd.) sprangletop (Leptochloa fusca ssp. fascicularis); conditions: Flood, 21 days, scale 0 to 100 (0 no effect, 100 complete control)
Outline: as §1

[10] = tested on: barnyardgrass (Echinochloa crus-galli); conditions: Flood, 21 days, scale 0 to 100 (0 no effect, 100 complete control)
Outline: as §1

[11] = tested on: early watergrass (Echinochloa oryzoides); conditions: Flood, 21 days, scale 0 to 100 (0 no effect, 100 complete control)
Outline: as §1

COC(=O)c1nc(-c2ccc(Cl)cc2)nc(N)c1Cl [Compound 58, methyl 6-amino-5-chloro-2-(4-chlorophenyl)-4-pyrimidinecarboxylate]
Sedge, Umbrella plant response rating ([1]; 32 g ai/ha): 95 | Sedge, Umbrella plant response rating ([1]; 64 g ai/ha): 95 | Sedge, Umbrella plant response rating ([1]; 125 g ai/ha): 95 | Sedge, Umbrella plant response rating ([1]; 250 g ai/ha): 100 | Plant response rating, Sedge, Umbrella [1]: 65 | Rice, Transplanted plant response rating ([2]; 32 g ai/ha): 0 | Rice, Transplanted plant response rating ([2]; 64 g ai/ha): 0 | Rice, Transplanted plant response rating ([2]; 125 g ai/ha): 0 | Rice, Transplanted plant response rating ([2]; 250 g ai/ha): 0 | Plant response rating, Rice, Transplanted [2]: 0 | Watergrass, Late plant response rating ([3]; 32 g ai/ha): 0 | Watergrass, Late plant response rating ([3]; 64 g ai/ha): 0 | Watergrass, Late plant response rating ([3]; 125 g ai/ha): 0 | Watergrass, Late plant response rating ([3]; 250 g ai/ha): 0 | Plant response rating, Watergrass, Late [3]: 0 | Rice, Water Seeded plant response rating ([4]; 32 g ai/ha): 0 | Rice, Water Seeded plant response rating ([4]; 64 g ai/ha): 0 | Rice, Water Seeded plant response rating ([4]; 125 g ai/ha): 0 | Rice, Water Seeded plant response rating ([4]; 250 g ai/ha): 20 | Plant response rating, Rice, Water Seeded [4]: 0 | Junglerice plant response rating ([5]; 32 g ai/ha): 0 | Junglerice plant response rating ([5]; 64 g ai/ha): 0 | Junglerice plant response rating ([5]; 125 g ai/ha): 0 | Junglerice plant response rating ([5]; 250 g ai/ha): 0 | Plant response rating, Junglerice [5]: 0 | Flatsedge, Rice plant response rating ([6]; 32 g ai/ha): 100 | Flatsedge, Rice plant response rating ([6]; 64 g ai/ha): 100 | Flatsedge, Rice plant response rating ([6]; 125 g ai/ha): 100 | Flatsedge, Rice plant response rating ([6]; 250 g ai/ha): 100 | Plant response rating, Flatsedge, Rice ([6]; 16 g ai/ha): 40 | Ducksalad plant response rating ([7]; 32 g ai/ha): 100 | Ducksalad plant response rating ([7]; 64 g ai/ha): 100 | Ducksalad plant response rating ([7]; 125 g ai/ha): 100 | Ducksalad plant response rating ([7]; 250 g ai/ha): 100 | Plant response rating, Ducksalad [7]: 100 | Redstem plant response rating ([8]; 32 g ai/ha): 80 | Redstem plant response rating ([8]; 64 g ai/ha): 85 | Redstem plant response rating ([8]; 125 g ai/ha): 95 | Redstem plant response rating ([8]; 250 g ai/ha): 95 | Plant response rating, Redstem [8]: 60 | Sprangletop, Brdd. plant response rating ([9]; 32 g ai/ha): 40 | Sprangletop, Brdd. plant response rating ([9]; 64 g ai/ha): 60 | Sprangletop, Brdd. plant response rating ([9]; 125 g ai/ha): 60 | Sprangletop, Brdd. plant response rating ([9]; 250 g ai/ha): 60 | Plant response rating, Sprangletop, Brdd. ([9]; 16 g ai/ha): 20

Cc1ccc(-c2nc(N)c(Cl)c(C(=O)O)n2)cc1 [Compound 91]
Sedge, Umbrella plant response rating ([1]; 32 g ai/ha): 0 | Sedge, Umbrella plant response rating ([1]; 64 g ai/ha): 30 | Sedge, Umbrella plant response rating ([1]; 125 g ai/ha): 100 | Sedge, Umbrella plant response rating ([1]; 250 g ai/ha): 100 | Plant response rating, Sedge, Umbrella [1]: 0 | Rice, Transplanted plant response rating ([2]; 32 g ai/ha): 0 | Rice, Transplanted plant response rating ([2]; 64 g ai/ha): 0 | Rice, Transplanted plant response rating ([2]; 125 g ai/ha): 0 | Rice, Transplanted plant response rating ([2]; 250 g ai/ha): 10 | Plant response rating, Rice, Transplanted [2]: 0 | Watergrass, Late plant response rating ([3]; 32 g ai/ha): 0 | Watergrass, Late plant response rating ([3]; 64 g ai/ha): 0 | Watergrass, Late plant response rating ([3]; 125 g ai/ha): 0 | Watergrass, Late plant response rating ([3]; 250 g ai/ha): 0 | Plant response rating, Watergrass, Late [3]: 0 | Barnyardgrass plant response rating ([10]; 32 g ai/ha): 0 | Barnyardgrass plant response rating ([10]; 64 g ai/ha): 10 | Barnyardgrass plant response rating ([10]; 125 g ai/ha): 10 | Barnyardgrass plant response rating ([10]; 250 g ai/ha): 10 | Plant response rating, Barnyardgrass ([10]; 16 g ai/ha): 0 | Rice, Water Seeded plant response rating ([4]; 32 g ai/ha): 0 | Rice, Water Seeded plant response rating ([4]; 64 g ai/ha): 10 | Rice, Water Seeded plant response rating ([4]; 125 g ai/ha): 10 | Rice, Water Seeded plant response rating ([4]; 250 g ai/ha): 20 | Plant response rating, Rice, Water Seeded [4]: 0 | Junglerice plant response rating ([5]; 32 g ai/ha): 0 | Junglerice plant response rating ([5]; 64 g ai/ha): 0 | Junglerice plant response rating ([5]; 125 g ai/ha): 0 | Junglerice plant response rating ([5]; 250 g ai/ha): 70 | Plant response rating, Junglerice [5]: 0 | Ducksalad plant response rating ([7]; 32 g ai/ha): 100 | Ducksalad plant response rating ([7]; 64 g ai/ha): 100 | Ducksalad plant response rating ([7]; 125 g ai/ha): 100 | Ducksalad plant response rating ([7]; 250 g ai/ha): 100 | Plant response rating, Ducksalad [7]: 100 | Redstem plant response rating ([8]; 32 g ai/ha): 0 | Redstem plant response rating ([8]; 64 g ai/ha): 0 | Redstem plant response rating ([8]; 125 g ai/ha): 30 | Redstem plant response rating ([8]; 250 g ai/ha): 50 | Plant response rating, Redstem [8]: 0 | Sprangletop, Brdd. plant response rating ([9]; 32 g ai/ha): 0 | Sprangletop, Brdd. plant response rating ([9]; 64 g ai/ha): 0 | Sprangletop, Brdd. plant response rating ([9]; 125 g ai/ha): 30 | Sprangletop, Brdd. plant response rating ([9]; 250 g ai/ha): 30 | Watergrass, Early plant response rating ([11]; 32 g ai/ha): 0 | Watergrass, Early plant response rating ([11]; 64 g ai/ha): 0 | Watergrass, Early plant response rating ([11]; 125 g ai/ha): 0 | Watergrass, Early plant response rating ([11]; 250 g ai/ha): 0 | Plant response rating, Watergrass, Early ([11]; 16 g ai/ha): 0
